Measured values: ChEMBL document CHEMBL3994568 (2016)
Values after ≈ are worked out from the molar mass of the structure shown. Active and inactive are the calls of the source. The calls are words filed in the database; no cut-off is given here.

Assays:
HEp-2 = assay: Cytotoxicity against human Hep2 cells assessed as cell viability up to 125 ug/ml after 24 hrs by CCK8 assay relative to control; assay type: functional
Staphylococcus aureus [1] = assay: Potency index, ratio of norfloxacin MIC to compound MIC for methicillin-resistant Staphylococcus aureus N315; assay type: functional
Staphylococcus aureus [2] = assay: Antibacterial activity against Staphylococcus aureus ATCC 25923 after 24 hrs by two-fold microbroth dilution method; assay type: functional; settings: ATCC 25923, 24 h
Aspergillus flavus = assay: Antifungal activity against Aspergillus flavus ATCC 204304 after 24 hrs by two-fold microbroth dilution method; assay type: functional; settings: ATCC 204304, 24 h
Bos taurus [3] = species on record: Bos taurus; assay: Induction of calf thymus DNA intercalation assessed as inhibition of neutral red binding to DNA by UV-vis absorption spectra analysis
Saccharomyces cerevisiae = assay: Antifungal activity against Saccharomyces cerevisiae ATCC 9763 after 24 hrs by two-fold microbroth dilution method; assay type: functional; settings: ATCC 9763, 24 h
[4] = Antibacterial activity against Eberthella typhosa ATCC 14028 after 24 hrs by two-fold microbroth dilution method; assay type: functional; settings: ATCC 14028, 24 h
Bos taurus [5] = species on record: Bos taurus; assay: Induction of calf thymus DNA intercalation assessed as compound-DNA complex formation at 5 x 10^-5mol/L by fluorescence spectroscopic method
Escherichia coli = assay: Antibacterial activity against Escherichia coli JM109 after 24 hrs by two-fold microbroth dilution method; assay type: functional; settings: JM109, 24 h
Pichia norvegensis = assay: Antifungal activity against Candida mycoderma ATCC 9888 after 24 hrs by two-fold microbroth dilution method; assay type: functional; settings: ATCC 9888, 24 h
Staphylococcus aureus [6] = assay: Antibacterial activity against methicillin-resistant Staphylococcus aureus N315 after 24 hrs by two-fold microbroth dilution method; assay type: functional; settings: N315, 24 h
Bacillus spizizenii = assay: Antibacterial activity against Bacillus subtilis ATCC 6633 after 24 hrs by two-fold microbroth dilution method; assay type: functional; settings: ATCC 6633, 24 h
Pseudomonas aeruginosa = assay: Antibacterial activity against Pseudomonas aeruginosa ATCC 27853 after 24 hrs by two-fold microbroth dilution method; assay type: functional; settings: ATCC 27853, 24 h
Bacillus = assay: Antibacterial activity against Bacillus proteus ATCC 13315 after 24 hrs by two-fold microbroth dilution method; assay type: functional; settings: ATCC 13315, 24 h
Candida albicans = assay: Antifungal activity against Candida albicans ATCC 10231 after 24 hrs by two-fold microbroth dilution method; assay type: functional; settings: ATCC 10231, 24 h
Staphylococcus aureus [7] = assay: Potency index, ratio of chloromycin MIC to compound MIC for methicillin-resistant Staphylococcus aureus N315; assay type: functional
Micrococcus luteus = assay: Antibacterial activity against Micrococcus luteus ATCC 4698 after 24 hrs by two-fold microbroth dilution method; assay type: functional; settings: NCTC 2665, 24 h
Bos taurus [8] = species on record: Bos taurus; assay: Binding affinity to calf thymus DNA by UV-vis absorption spectra analysis
Cyberlindnera jadinii = assay: Antifungal activity against Candida utilis ATCC 9950 after 24 hrs by two-fold microbroth dilution method; assay type: functional; settings: Williopsis jadinii, ATCC 9950, 24 h
Bos taurus [9] = species on record: Bos taurus; assay: Binding affinity to calf thymus DNA assessed as hypochromic effect by UV-vis absorption spectra analysis

CCCCCCCn1c2ccc(-c3csc(N)n3)cc2c2cc(-c3csc(N)n3)ccc21
Activity (HEp-2): 85%
Ratio (Staphylococcus aureus [1]): 2
MIC (Staphylococcus aureus [2]): 16 µg/mL (≈ 34.7 µM)
MIC (Aspergillus flavus): 256 µg/mL (≈ 555 µM)
inhibition (Bos taurus [3]): Dose-dependent effect
MIC (Saccharomyces cerevisiae): 128 µg/mL (≈ 277 µM)
MIC [4]: 128 µg/mL (≈ 277 µM)
Activity (Bos taurus [5]): Active
MIC (Escherichia coli): 128 µg/mL (≈ 277 µM)
MIC (Pichia norvegensis): 64 µg/mL (≈ 139 µM)
MIC (Staphylococcus aureus [6]): 4 µg/mL (≈ 8.66 µM)
MIC (Bacillus spizizenii): 256 µg/mL (≈ 555 µM)
MIC (Pseudomonas aeruginosa): 128 µg/mL (≈ 277 µM)
MIC (Bacillus): 256 µg/mL (≈ 555 µM)
MIC (Candida albicans): 128 µg/mL (≈ 277 µM)
Ratio (Staphylococcus aureus [7]): 16
MIC (Micrococcus luteus): 64 µg/mL (≈ 139 µM)
K (Bos taurus [8]): 2.71 ×10⁴ L/mol
MIC (Cyberlindnera jadinii): 256 µg/mL (≈ 555 µM)
Activity (Bos taurus [9]): Dose-dependent effect
